Test system: HCT 116 colon adenocarcinoma cells
Test: Cell Proliferation Procedure (SRB, three days)
Type: cell-based
Conditions: for IC50: growth for 3 days, SRB, single agent, read-out: IC50 value, drug alone
Procedure: Cell Proliferation Procedure—HCT 116 colon adenocarcinoma cells were maintained in RPMI 1640 medium (Life Technologies, Inc., Gaithersburg, Md.) supplemented with 10% fetal bovine serum (FBS, Life Technologies) and 50 μg/ml gentamicin (Life Technologies) under 7% CO2 at 37° C. Cells were plated in 96-well microtiter dishes (6000 cells/well) in 200 μl RPMI 1640 medium containing 5% FBS and 50 μg/ml gentamicin and incubated overnight at 37° C. Compound dilutions were prepared in the same medium, at 5× final concentration, and 50 μl of the drug dilution was added to the cell-containing wells. For studies involving combinations of two drugs, serial dilutions of one compound were prepared in the presence of a fixed dose of a second compound. Alternatively, a checkerboard dilution series was employed. Cells were cultured for three days in the presence of the drugs. Untreated cells were included as controls. The percentage of surviving cells was determined using sulforhodamine B (SRB, Sigma-Aldrich, St Louis, Mo.), a protein binding dye. Cellular protein was precipitated in each well by the addition of 50 μl of 50% cold trichloroacetic acid. After 1 hour, the plates were washed extensively in water and dried. SRB dye reagent (0.4% SRB in 1% acetic acid, 80 μl per well) was added and plates were kept at room temperature for ten minutes. Plates were then washed thoroughly in 1% acetic acid and dried. Cell-associated dye was dissolved in 10 mM Tris (150 μl) and the absorbance was read at 540 nm in a microtiter plate reader. The concentration of compound that caused a fixed percentage inhibition of growth was determined by plotting cell survival (relative to untreated cells) against the compound dose.

[1] = Homo sapiens, HCT-116, 72 h, HCT116 cells

| Structure (SMILES) | high doses that inhibit the cells (cells somewhat resistant) (HCT 116 cells, CCI-779 alone) [µg/mL] | inhibition at 0.026 µg/mL (Homo sapiens, HCT-116, 72 h, HCT116 cells, 3 days, 0.026 μg/ml CCI-779 alone) [%] | inhibition at 2.08 µg/mL (Homo sapiens, HCT-116, 72 h, HCT116 cells, 3 days, 2.08 μg/ml CCI-779 alone, read-out: inhibition of growth when administered alone) [%] | IC50 [1] [µg/mL] |
| --- | --- | --- | --- | --- |
| CO[C@H]1C[C@@H]2CC[C@@H](C)[C@@](O)(O2)C(=O)C(=O)N2CCCC[C@H]2C(=O)O[C@H]([C@H](C)C[C@@H]2CC[C@@H](OC(=O)C(C)(CO)CO)[C@H](OC)C2)CC(=O)[C@H](C)/C=C(\C)[C@@H](O)[C@@H](OC)C(=O)[C@H](C)C[C@H](C)/C=C/C=C/C=C/1C [CCI-779, rapamycin 42-ester with 3-hydroxy-2-(hydroxymethyl)-2-methylpropionic acid] | 5 to 10 | 36 | 41 | 4.3 |
| CCOc1cc2ncc(C#N)c(Nc3ccc(F)c(Cl)c3)c2cc1NC(=O)C=CCN(C)C [EKB-569, 4-dimethylamino-but-2-enoic acid [4-(3-chloro-4-fluoro-phenylamino)-3-cyano-7-ethoxy-quinolin-6-yl]-amide] | – | – | – | 0.31 |
